Tests used:
Type in all cases: physicochemical
[1] = differential scanning calorimetry of annealed indomethacin-PVP mixtures (absence of melting endotherm = all drug dissolved)
Protocol: Binary physical mixtures of the drug indomethacin and the polymer PVP (polyvinylpyrrolidone K29/32), both used as received, were mixed in various ratios, so the drug weight fraction ranged from 2.5-30% w/w (compared to the total physical mixture). Mixing was done for 15 minutes using a mortar and pestle. Solid solutions were then prepared by annealing and annealing with an adjuvant.
Annealing was done by transferring weighed samples of the physical mixtures into glass vials, which were then stored in an oven without inducing a vacuum at 130° C. for 6 days to equilibrate and allow the indomethacin to distribute and dissolve in the PVP. After annealing, the samples were allowed to cool to room temperature.
Annealing with an adjuvant was done by transferring weighed amounts of the physical mixtures into glass vials, then adding the adjuvant ethanol dropwise to the surface of the physical mixture in each vial in an adjuvant weight equal to approximately 25% of each dry drug-polymer physical mixture sample. No mixing of the adjuvant and physical mixture was done after adding the ethanol drops. The drug, polymer and adjuvant were then allowed to anneal in an oven at 70° C., with some samples annealing for 4 hours, some for 8 hours and some for 12 hours. After annealing with an adjuvant for each specified time, the samples were allowed to cool to room temperature. […]

[2] = dissolution, USP Type II (paddle) apparatus, 150 mg formulation in 500 mL phosphate buffer pH 2.5 at 37° C.; settings: pH 2.5 buffer, 30 minutes
Protocol: Dissolution experiments were done using a USP Type II (paddle type) apparatus, dissolving 150 mg of formulation in 500 mL of water buffered to a pH of 2.5 using phosphate buffer at 37° C. This corresponded to 15 mg of indomethacin per 500 mL of dissolution medium for the 10% indomethacin formulation, and 30 mg of indomethacin per 500 mL of dissolution medium for the 20% indomethacin formulation. In addition, pure indomethacin was dissolved in a similar USP type II apparatus for 30 minutes for comparison. […]

[3] = solubility of indomethacin in aqueous buffer at pH 2.5 (excess solid, stirred, 20 nm filtered, HPLC)
Protocol: In addition to Examples 1-6, other experiments were done in which the solubility of indomethacin in aqueous buffer at pH 2.5 was determined. This was done by placing an excess amount of indomethacin solid (approximately 100 mg) in 20 mL of the buffer and stirring at a constant temperature of 37° C. for three days, after which an aliquot was taken and filtered through a Watman Anotop-10 20 nm filter, then assayed by HPLC for the dissolved indomethacin concentration in the solution. Subsequently, the temperature of the remaining indomethacin-buffer mixture was raised to approximately 95° C. and kept at that temperature with stirring for an additional 24 hours. After 24 hours, the dissolved indomethacin concentration was again determined by taking an aliquot, filtering through a 20 nm Anotop-10 filter, and assaying by HPLC.

Which results are given for `COc1ccc2c(c1)c(CC(=O)O)c(C)n2C(=O)c1ccc(Cl)cc1` [indomethacin]?
indomethacin concentration in PVP up to which all of the drug dissolved (no melting endotherm by DSC) ([1]; annealed with ethanol adjuvant (about 25% of mixture weight) for 12 hours at 70° C.): approximately 15 % by weight; indomethacin concentration in PVP up to which all of the drug dissolved (no melting endotherm by DSC) ([1]; annealed without an adjuvant for 6 days at 130° C.): approximately 15 % by weight; dissolution in the aqueous buffer compared with indomethacin in physical mixtures with PVP [2]: much slower; estimate for the solubility of indomethacin in the aqueous buffer ([3]; 37° C., pH 2.5, estimate from solubility experiment and Example 1 dissolution): one to two; solubility at 3 days ([3]; aqueous buffer, thermodynamic from solid, pH 2.5, 37° C., after three days stirring, read-out: dissolved indomethacin concentration (solubility) in aqueous buffer): < 1 µg/mL; solubility ([3]; aqueous buffer, thermodynamic from solid, pH 2.5, three days at 37° C. plus an additional day at 95° C., read-out: dissolved indomethacin concentration (solubility) in aqueous buffer): ~27 µg/mL; dissolved indomethacin concentration (solubility) in aqueous buffer ([3]; pH 2.5, 37° C., after three days stirring): below one
